In PubChem BioAssay AID1918998 (Molecular Pharmacology Branch, DTP, NCI, 2023):

Test system: 521955-158-R2-J5-PDC complex spheroid growth
Assay: Anticancer human tumor 521955-158-R2-J5-PDC patient-derived pancreatic carcinoma cell line growth inhibition [AhR]
Settings: for IC50: curve of first compound; for viability, T/C: stronger effect = lower value; active = viability on the fitted dose curve at most 10% of control; inactive = the rest
Procedure, shortened: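 Complex tumor spheroids co-cultured with HUVEC and human MSC stroma; AhR antagonists tested in combination with standard-of-care and investigational agents. Top concentration at or near clinical Cmax (else 10 microM), half-log dilutions; growth expressed as percent test/control.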

[1] = second compound 0.1 µM, first compound 0.0316 µM
[2] = second compound 0.1 µM, first compound 0.1 µM
[3] = second compound 0.1 µM, first compound 0.316 µM
[4] = second compound 0.1 µM, first compound 1 µM
[5] = second compound 0.316 µM, first compound 0.0316 µM
[6] = second compound 0.316 µM, first compound 0.1 µM
[7] = second compound 0.316 µM, first compound 0.316 µM
[8] = second compound 0.316 µM, first compound 1 µM
[9] = second compound 1 µM, first compound 0.0316 µM
[10] = second compound 1 µM, first compound 0.1 µM
[11] = second compound 1 µM, first compound 0.316 µM
[12] = second compound 1 µM, first compound 1 µM
[13] = second compound 3.16 µM, first compound 0.0316 µM
[14] = second compound 3.16 µM, first compound 0.1 µM
[15] = second compound 3.16 µM, first compound 0.316 µM
[16] = second compound 3.16 µM, first compound 1 µM
[17] = second compound 10 µM, first compound 0.0316 µM
[18] = second compound 10 µM, first compound 0.1 µM
[19] = second compound 10 µM, first compound 0.316 µM
[20] = second compound 10 µM, first compound 1 µM
[21] = second compound 0.1 µM, first compound 3.16 µM
[22] = second compound 0.1 µM, first compound 10 µM
[23] = second compound 0.316 µM, first compound 3.16 µM
[24] = second compound 0.316 µM, first compound 10 µM
[25] = second compound 1 µM, first compound 3.16 µM
[26] = second compound 1 µM, first compound 10 µM
[27] = second compound 3.16 µM, first compound 3.16 µM
[28] = second compound 3.16 µM, first compound 10 µM
[29] = second compound 10 µM, first compound 3.16 µM
[30] = second compound 10 µM, first compound 10 µM
[31] = second compound 0.1 µM, first compound 0.00949 µM
[32] = second compound 0.1 µM, first compound 0.03 µM
[33] = second compound 0.1 µM, first compound 0.0949 µM
[34] = second compound 0.1 µM, first compound 0.3 µM
[35] = second compound 0.316 µM, first compound 0.00949 µM
[36] = second compound 0.316 µM, first compound 0.03 µM
[37] = second compound 0.316 µM, first compound 0.0949 µM
[38] = second compound 0.316 µM, first compound 0.3 µM
[39] = second compound 1 µM, first compound 0.00949 µM
[40] = second compound 1 µM, first compound 0.03 µM
[41] = second compound 1 µM, first compound 0.0949 µM
[42] = second compound 1 µM, first compound 0.3 µM
[43] = second compound 3.16 µM, first compound 0.00949 µM
[44] = second compound 3.16 µM, first compound 0.03 µM
[45] = second compound 3.16 µM, first compound 0.0949 µM
[46] = second compound 3.16 µM, first compound 0.3 µM
[47] = second compound 10 µM, first compound 0.00949 µM
[48] = second compound 10 µM, first compound 0.03 µM
[49] = second compound 10 µM, first compound 0.0949 µM
[50] = second compound 10 µM, first compound 0.3 µM
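Throughout, for viability, T/C: spheroids mix tumor cells with HUVEC endothelium and human MSC stroma; luminescence taken as viability surrogate after a week of drug exposure.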

CC1COCCN1c1cc(-c2ccnn2C)c2ccnc(-c3ccn[nH]3)c2n1 (stereo not given) + CC(CO)NC(=O)c1cc(-c2ccc(Cl)cc2)nn(-c2cnn(C)c2)c1=O
67.7 nM: IC50 (second compound 3.16 µM)
106 nM: IC50 (second compound 0.316 µM)
88.1 nM: IC50 (second compound 0.1 µM)
inactive: viability, T/C (second compound 0.1 µM, first compound 0.00316 µM) 91.6% | viability, T/C (second compound 0.1 µM, first compound 0.01 µM) 121% | viability, T/C [1] 98.3% | viability, T/C [2] 44.3% | viability, T/C [3] 11.2% | viability, T/C [4] 14.6% | viability, T/C (second compound 0.316 µM, first compound 0.00316 µM) 141% | viability, T/C (second compound 0.316 µM, first compound 0.01 µM) 126% | viability, T/C [5] 110% | viability, T/C [6] 54.5% | viability, T/C [7] 8.67% | viability, T/C (second compound 1 µM, first compound 0.00316 µM) 93% | viability, T/C (second compound 1 µM, first compound 0.01 µM) 115% | viability, T/C [9] 120% | viability, T/C [10] 37% | viability, T/C [11] 8.65% | viability, T/C [12] 13.6% | viability, T/C (second compound 3.16 µM, first compound 0.00316 µM) 115% | viability, T/C (second compound 3.16 µM, first compound 0.01 µM) 102% | viability, T/C [13] 94.4% | viability, T/C [14] 27.6% | viability, T/C [15] 8.07% | viability, T/C (second compound 10 µM, first compound 0.00316 µM) 93.5% | viability, T/C (second compound 10 µM, first compound 0.01 µM) 89.5% | viability, T/C [17] 55.8% | viability, T/C [18] 17.8% | viability, T/C [19] 7.29%
37.8 nM: IC50 (second compound 10 µM)
active: viability, T/C [8] 13.1% | viability, T/C [16] 12.1% | viability, T/C [20] 12.2%
81.3 nM: IC50 (second compound 1 µM)

CC1COCCN1c1cc(C2(S(C)(=N)=O)CC2)nc(-c2ccnc3[nH]ccc23)n1 (stereo not given) + CC(CO)NC(=O)c1cc(-c2ccc(Cl)cc2)nn(-c2cnn(C)c2)c1=O
2220 nM: IC50 (second compound 0.316 µM)
inactive: viability, T/C [1] 114% | viability, T/C [2] 147% | viability, T/C [3] 125% | viability, T/C [4] 111% | viability, T/C [21] 32.3% | viability, T/C [22] 17.2% | viability, T/C [5] 110% | viability, T/C [6] 106% | viability, T/C [7] 130% | viability, T/C [8] 113% | viability, T/C [23] 21.8% | viability, T/C [24] 14.1% | viability, T/C [9] 113% | viability, T/C [10] 108% | viability, T/C [11] 103% | viability, T/C [12] 125% | viability, T/C [25] 24.8% | viability, T/C [26] 12.7% | viability, T/C [13] 114% | viability, T/C [14] 117% | viability, T/C [15] 146% | viability, T/C [16] 105% | viability, T/C [27] 20.6% | viability, T/C [28] 12.3% | viability, T/C [17] 89.2% | viability, T/C [18] 123% | viability, T/C [19] 110% | viability, T/C [20] 85% | viability, T/C [29] 17.3% | viability, T/C [30] 11.8%
2250 nM: IC50 (second compound 3.16 µM)
2270 nM: IC50 (second compound 1 µM)
2440 nM: IC50 (second compound 0.1 µM)
1810 nM: IC50 (second compound 10 µM)

COc1ccc([C@@H](O)c2cc(-c3ncnc4cc(N5CCOCC5)ccc34)c(F)cc2Cl)nn1 + CC(CO)NC(=O)c1cc(-c2ccc(Cl)cc2)nn(-c2cnn(C)c2)c1=O
2970 nM: IC50 (second compound 3.16 µM)
> 10000 nM: IC50 (second compound 0.1 µM)
inactive: viability, T/C [1] 94.8% | viability, T/C [2] 90.2% | viability, T/C [3] 95.7% | viability, T/C [4] 89.7% | viability, T/C [21] 61.2% | viability, T/C [22] 50.9% | viability, T/C [5] 82.4% | viability, T/C [6] 98.9% | viability, T/C [7] 99.9% | viability, T/C [8] 83% | viability, T/C [23] 52.3% | viability, T/C [24] 41.5% | viability, T/C [9] 114% | viability, T/C [10] 101% | viability, T/C [11] 96.7% | viability, T/C [12] 79.3% | viability, T/C [25] 61.7% | viability, T/C [26] 40.3% | viability, T/C [13] 104% | viability, T/C [14] 86.2% | viability, T/C [15] 116% | viability, T/C [16] 73% | viability, T/C [27] 54.6% | viability, T/C [28] 42.7% | viability, T/C [17] 87.7% | viability, T/C [18] 88.9% | viability, T/C [19] 79.3% | viability, T/C [20] 57.9% | viability, T/C [29] 44.8% | viability, T/C [30] 35.5%
1900 nM: IC50 (second compound 10 µM)
3860 nM: IC50 (second compound 0.316 µM)
5970 nM: IC50 (second compound 1 µM)

Nc1ncn(C2CC(O)C(CO)S2)c(=O)n1 (stereo not given) + CC(CO)NC(=O)c1cc(-c2ccc(Cl)cc2)nn(-c2cnn(C)c2)c1=O
inactive: viability, T/C (second compound 0.1 µM, first compound 0.000949 µM) 79.4% | viability, T/C (second compound 0.1 µM, first compound 0.003 µM) 89.4% | viability, T/C [31] 97.9% | viability, T/C [32] 89.9% | viability, T/C [33] 72.6% | viability, T/C [34] 71.2% | viability, T/C (second compound 0.316 µM, first compound 0.000949 µM) 115% | viability, T/C (second compound 0.316 µM, first compound 0.003 µM) 107% | viability, T/C [35] 107% | viability, T/C [36] 116% | viability, T/C [37] 94.1% | viability, T/C [38] 84.4% | viability, T/C (second compound 1 µM, first compound 0.000949 µM) 107% | viability, T/C (second compound 1 µM, first compound 0.003 µM) 107% | viability, T/C [39] 106% | viability, T/C [40] 108% | viability, T/C [41] 73% | viability, T/C [42] 99.3% | viability, T/C (second compound 3.16 µM, first compound 0.000949 µM) 102% | viability, T/C (second compound 3.16 µM, first compound 0.003 µM) 116% | viability, T/C [43] 141% | viability, T/C [44] 111% | viability, T/C [45] 86.1% | viability, T/C [46] 73.1% | viability, T/C (second compound 10 µM, first compound 0.000949 µM) 73.8% | viability, T/C (second compound 10 µM, first compound 0.003 µM) 81.3% | viability, T/C [47] 102% | viability, T/C [48] 76.9% | viability, T/C [49] 88.3% | viability, T/C [50] 81.5%
> 300 nM: IC50 (second compound 0.1 µM) | IC50 (second compound 0.316 µM) | IC50 (second compound 1 µM) | IC50 (second compound 3.16 µM) | IC50 (second compound 10 µM)

O=C(C=Cn1cnc(-c2cc(C(F)(F)F)cc(C(F)(F)F)c2)n1)NNc1cnccn1 + CC(CO)NC(=O)c1cc(-c2ccc(Cl)cc2)nn(-c2cnn(C)c2)c1=O
21.8 nM: IC50 (second compound 3.16 µM)
12.5 nM: IC50 (second compound 10 µM)
23.3 nM: IC50 (second compound 1 µM)
inactive: viability, T/C [31] 59.2% | viability, T/C [32] 58.6% | viability, T/C [33] 42.9% | viability, T/C [34] 45.7% | viability, T/C (second compound 0.1 µM, first compound 0.949 µM) 39.4% | viability, T/C (second compound 0.1 µM, first compound 3 µM) 29.1% | viability, T/C [35] 85.6% | viability, T/C [36] 44.6% | viability, T/C [37] 43.8% | viability, T/C [38] 38% | viability, T/C (second compound 0.316 µM, first compound 0.949 µM) 37.7% | viability, T/C (second compound 0.316 µM, first compound 3 µM) 23.9% | viability, T/C [39] 62.8% | viability, T/C [40] 40.3% | viability, T/C [41] 38.9% | viability, T/C [42] 38.8% | viability, T/C (second compound 1 µM, first compound 0.949 µM) 34.6% | viability, T/C (second compound 1 µM, first compound 3 µM) 21.7% | viability, T/C [43] 58.9% | viability, T/C [44] 38.7% | viability, T/C [45] 50.4% | viability, T/C [46] 29.4% | viability, T/C (second compound 3.16 µM, first compound 0.949 µM) 27.6% | viability, T/C (second compound 3.16 µM, first compound 3 µM) 25.6% | viability, T/C [47] 52.7% | viability, T/C [48] 42.1% | viability, T/C [49] 27.5% | viability, T/C [50] 26.7% | viability, T/C (second compound 10 µM, first compound 0.949 µM) 22.4% | viability, T/C (second compound 10 µM, first compound 3 µM) 17.7%
29.4 nM: IC50 (second compound 0.316 µM)
81.6 nM: IC50 (second compound 0.1 µM)
